Experimental data published in US20260137742A1, “Composition for Activating Transient Receptor Potential Ankyrin 1, and Composition for Enhancing Food Consumption and/or Ameliorating Decreased Appetite” (HOUSE FOODS GROUP INC., priority 2022, published 2026).

Experiments:
human TRPA1 (hTRPA1) [1] = biological target: T1, human TRPA1 (hTRPA1) (Homo sapiens, UniProt O75762); assay: Intracellular Ca2+ Imaging Assay 1 (TRPA1 activation rate, hTRPA1 stable expression cell line); format: cell-based; details: for TRPA1 Activation Rate (Mean ± Standard Error): relative to ionomycin, n = 6
T1 construct: expressed in transfected cells
Method: (§1) A DNA coding for human TRPA1 (hTRPA1) (GenBank accession number: NM_007332.3) was inserted into the pcDNA5/TO vector (Invitrogen) to create an expression vector. This expression vector was transfected into T-REx™-293 cells (Invitrogen) by a conventional method using Lipofectamine LTX (Invitrogen). Using 10% fetal bovine serum (FBS, Cytiva), 400μ/mL hygromycin B, and 5 μg/mL blasticidin S, which were added to Dulbecco's Modified Eagle Medium (DMEM, Nacalai Tesque) as drug selection medium, the transfectants were cultured by a conventional method and cloned to obtain an hTRPA1 stable expression cell line.
Two hundred microliters of each mushroom extract solution prepared in item 1 (1) was dispensed and the solvent was removed under vacuum using a desiccator. The dried residue left in the container was dissolved in 1 mL of assay buffer (Hank's Balanced Salt Solution without calcium and magnesium ions, containing 1 mM CaCl2 dihydrate, 20 mM HEPES, and 0.1% BSA). […]
(§2) This plate was set in FlexStation3 (Molecular Devices) and the fluorescence intensity (excitation at 490 nm, emission at 525 nm) was measured every 2 seconds at 31° C.; 30 seconds after the start of measurement, 100 μL of assay buffer containing the negative control DMSO (final concentration: 20 μL/mL), the positive control allyl isothiocyanate (AITC) (AITC was dissolved in DMSO; final concentration: 30 μM), each mushroom extract solution described above, or lenthionine (manufactured by Ambeed, Inc.) (lenthionine was dissolved in DMSO; final concentration: 50 μM) was added. In addition, to determine the reference for fluorescence intensity, wells to which assay buffer containing ionomycin (final concentration: 10 µM after addition) was added were prepared instead of the test samples.
(§3) Fluorescence intensity measurement was continued until 120 seconds from the start; the TRPA1-activating ability of the test samples and so forth was calculated using the formula below.
Fmax[s]: maximum fluorescence intensity after adding the test sample or positive control […]
Fmax[I]: maximum fluorescence intensity after adding ionomycin

human TRPA1 (hTRPA1) [2] = biological target: T1, human TRPA1 (hTRPA1); assay: Intracellular Ca2+ Imaging Assay 2 (stepwise concentrations 0.01 μM-300 μM); format: cell-based
Method: as §1
(§4) Next, an hTRPA1 stable expression cell line whose hTRPA1 expression had been induced in advance by a conventional method was prepared in a 96-well clear-bottom plate; after washing each well with PBS, 50 μL of assay buffer (Hank's Balanced Salt Solution without calcium and magnesium ions, containing 1 mM CaCl2 dihydrate, 20 mM HEPES, 0.1% BSA, and 4 μM Calbryte™ 520 AM (manufactured by AAT BioQuest)) was added and incubated for 45 minutes at 33° C. After washing with assay buffer, 100 μL of assay buffer was added to each well.
as §2, §3
Aside from using samples in which the concentrations of AITC or lenthionine were set stepwise in the range of 0.01 μM-300 μM, the procedure was the same as in (2) above; the TRPA1-activating abilities of each sample were measured.

human TRPA1 (hTRPA1) [3] = biological target: T1, human TRPA1 (hTRPA1); assay: Intracellular Ca2+ Imaging Assay 3 (with or without TRPA1-specific antagonist A-967079); format: cell-based
Method: as §1, §4, §2, §3
Samples of 30 μM AITC, 100 μM or 5 μM lenthionine, or DMSO were used; the test was performed either in the presence of the TRPA1-specific antagonist A-967079 (1 μM) or in the absence thereof (DMSO: 20 μL/mL); apart from this, the procedure was the same as in (3) above, and the TRPA1-activating abilities of each sample were measured.

Male ICR mice = assay: Test 1 for Ameliorating Decreased Appetite (food intake in mice after single gastric gavage); format: in vivo; details: for Food Intake (Mean ± Standard Error, n = 10): lenthionine 50 μmol/kg body weight, single gastric gavage, 30 minutes after start of feeding
Method: Male ICR mice were kept in individual cages with ALPHA-dri (Shepherd Specialty Papers) as bedding, and they were fed a powdered diet (CE-2, CLEA Japan) using a powder feeder for mice (SN-950, Shinano Seisakusho Co., Ltd.), with ad libitum feeding and free access to water, for at least one week for acclimatization. During the few days prior to the experiment, daily handling and gavage training using a feeding needle (FG4202, Fuchigami Kikai) were performed.
As test samples, the following were prepared for each of carrier solution (containing, by volume, 5% dimethyl sulfoxide, 1% Tween80, and 94% corn oil) and lenthionine solution (carrier solution containing 0.94 mg lenthionine per 1 mL): one containing the TRPA1-specific antagonist A-967079 (1.0 μmol of A-967079 per 1 mL of the carrier solution) and one not containing it; one of these was administered to 11- to 12-week-old mice under ad libitum feeding conditions by a single gastric gavage at 9:20 a.m. at 10 mL/kg body weight. The dose of lenthionine in molar terms was 50 μmol/kg body weight. Immediately after the single gavage, at 9:30 a.m., the powdered feeder inside the cage was replaced with a new feeder loaded with powdered diet whose mass had been measured beforehand; this time point was set as the start of the feeding experiment. Thirty minutes after the start of the feeding experiment, the mass of the feeder and any spilled feed in the cage was measured, and the food intake (g) was calculated (n=10).

T1 sequence (O75762 whole entry): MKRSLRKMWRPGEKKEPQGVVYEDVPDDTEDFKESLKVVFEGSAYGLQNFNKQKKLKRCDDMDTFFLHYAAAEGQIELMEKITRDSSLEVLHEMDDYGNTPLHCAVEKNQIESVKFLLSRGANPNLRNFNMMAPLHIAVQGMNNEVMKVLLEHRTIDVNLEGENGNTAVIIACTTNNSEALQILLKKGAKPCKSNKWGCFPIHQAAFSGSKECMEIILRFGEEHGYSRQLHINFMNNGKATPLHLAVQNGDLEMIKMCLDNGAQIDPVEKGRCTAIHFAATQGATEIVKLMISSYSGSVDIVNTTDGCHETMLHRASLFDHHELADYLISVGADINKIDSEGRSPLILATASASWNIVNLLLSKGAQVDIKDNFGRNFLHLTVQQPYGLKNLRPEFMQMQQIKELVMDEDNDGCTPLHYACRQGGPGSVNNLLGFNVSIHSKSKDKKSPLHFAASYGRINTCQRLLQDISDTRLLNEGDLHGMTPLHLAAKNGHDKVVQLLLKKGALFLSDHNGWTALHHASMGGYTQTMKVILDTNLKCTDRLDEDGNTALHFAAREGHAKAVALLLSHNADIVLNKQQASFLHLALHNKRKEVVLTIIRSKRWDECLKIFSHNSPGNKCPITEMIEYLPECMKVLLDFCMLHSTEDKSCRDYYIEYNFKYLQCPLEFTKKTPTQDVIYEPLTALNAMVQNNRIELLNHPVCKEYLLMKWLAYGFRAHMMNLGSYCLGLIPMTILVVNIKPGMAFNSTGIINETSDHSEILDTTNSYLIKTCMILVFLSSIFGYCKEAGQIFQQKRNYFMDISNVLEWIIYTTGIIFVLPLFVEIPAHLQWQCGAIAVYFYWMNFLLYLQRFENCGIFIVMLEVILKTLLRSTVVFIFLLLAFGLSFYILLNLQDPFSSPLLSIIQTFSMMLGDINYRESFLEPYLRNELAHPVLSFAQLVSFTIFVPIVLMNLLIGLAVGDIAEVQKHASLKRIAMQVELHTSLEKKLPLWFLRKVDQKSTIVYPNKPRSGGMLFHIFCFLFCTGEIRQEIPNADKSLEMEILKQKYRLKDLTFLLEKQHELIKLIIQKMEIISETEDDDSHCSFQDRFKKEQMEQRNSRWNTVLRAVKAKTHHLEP

Row | Compound | TRPA1 Activation Rate (Mean ± Standard Error, n = 6) (human TRPA1 (hTRPA1) [2]; 0.01 μM) [%] | TRPA1 Activation Rate (Mean ± Standard Error, n = 6) (human TRPA1 (hTRPA1) [2]; 0.1 μM) [%] | TRPA1 Activation Rate (Mean ± Standard Error, n = 6) (human TRPA1 (hTRPA1) [2]; 0.5 μM) [%] | TRPA1 Activation Rate (Mean ± Standard Error, n = 6) (human TRPA1 (hTRPA1) [2]; 1 μM) [%] | TRPA1 Activation Rate (Mean ± Standard Error, n = 6) (human TRPA1 (hTRPA1) [2]; 5 μM) [%] | TRPA1 Activation Rate (Mean ± Standard Error, n = 6) (human TRPA1 (hTRPA1) [2]; 10 μM) [%] | TRPA1 Activation Rate (Mean ± Standard Error, n = 6) (human TRPA1 (hTRPA1) [2]; 50 μM) [%] | TRPA1 Activation Rate (Mean ± Standard Error, n = 6) (human TRPA1 (hTRPA1) [2]; 100 μM) [%] | TRPA1 Activation Rate (Mean ± Standard Error, n = 6) (human TRPA1 (hTRPA1) [2]; 300 μM) [%] | other results
1 | C=CCN=C=S [AITC, allyl isothiocyanate, reference compound] | 4.02 ± 0.50 | 5.20 ± 0.19 | 6.19 ± 0.32 | 13.0 ± 1.79 | 64.0 ± 4.13 | 85.2 ± 3.76 | 105 ± 1.86 | 117 ± 2.57 | 119 ± 2.74 | TRPA1 Activation Rate (Mean ± Standard Error) (human TRPA1 (hTRPA1) [1]; AITC 30 μM final concentration): 106 ± 1.89%; TRPA1 Activation Rate (Mean ± Standard Error, n = 6) (human TRPA1 (hTRPA1) [3]; 30 μM, No Antagonist (DMSO 20 μL/mL)): 156 ± 1.38%; TRPA1 Activation Rate (Mean ± Standard Error, n = 6) (human TRPA1 (hTRPA1) [3]; 30 μM, With Antagonist A-967079 (1 μM)): 1.22 ± 0.06 %
2 | C1SSCSSS1 [Lenthionine, 1,2,3,5,6-pentathiepane] | 2.64 ± 0.19 | 2.42 ± 0.14 | 10.2 ± 0.82 | 22.3 ± 1.04 | 53.8 ± 2.29 | 72.5 ± 2.88 | 92.6 ± 3.83 | 104 ± 1.94 | 118 ± 2.65 | TRPA1-activating effect (in words) (human TRPA1 (hTRPA1) [1]; Ca2+ imaging assay 1, summary of Table 1): activated TRPA1; TRPA1 Activation Rate (Mean ± Standard Error) (human TRPA1 (hTRPA1) [1]; lenthionine 50 μM final concentration): 93.0 ± 3.70%; TRPA1-activating effect, concentration dependence (in words) (human TRPA1 (hTRPA1) [2]; 0.01 μM-300 μM, compared with AITC): activated TRPA1 in a concentration-dependent manner, at similar intensity to AITC; TRPA1 Activation Rate (Mean ± Standard Error, n = 6) (human TRPA1 (hTRPA1) [3]; 5 μM, No Antagonist (DMSO 20 μL/mL)): 64.6 ± 1.38%; TRPA1 Activation Rate (Mean ± Standard Error, n = 6) (human TRPA1 (hTRPA1) [3]; 5 μM, With Antagonist A-967079 (1 μM)): 1.46 ± 0.14 %; TRPA1 Activation Rate (Mean ± Standard Error, n = 6) (human TRPA1 (hTRPA1) [3]; 100 μM, No Antagonist (DMSO 20 μL/mL)): 133 ± 1.36%; TRPA1 Activation Rate (Mean ± Standard Error, n = 6) (human TRPA1 (hTRPA1) [3]; 100 μM, With Antagonist A-967079 (1 μM)): 1.61 ± 0.37 %; TRPA1-activating effect in presence of TRPA1-specific antagonist (in words) (human TRPA1 (hTRPA1) [3]; A-967079 1 μM): inhibited by the TRPA1-specific antagonist; Food Intake (Mean ± Standard Error, n = 10) (Male ICR mice; No Antagonist): 0.117 ± 0.035 g; Food Intake (Mean ± Standard Error, n = 10) (Male ICR mice; With Antagonist A-967079 (1.0 μmol per 1 mL)): 0.025 ± 0.023 g; Food intake versus carrier solution (in words) (Male ICR mice; lenthionine solution with TRPA1-specific antagonist A-967079): no increase in food intake was observed; Food intake versus carrier solution (in words) (Male ICR mice; lenthionine solution, No Antagonist): food intake increased
